Experimental data taken from patent publication US4611001A, “Antimycotic pyrazolotetrathiepins” (E. I. Du Pont de Nemours and Company, priority 1985, dated 1986).
In brackets after ≈: the same amount, converted by molar mass. One block for each compound: values may come before it.

How the values were obtained:
fungi = test: in vitro antifungal (antimycotic) activity, general statement; format: cell-based; details: by-product; test not specified
Text: (§1) The fused pyrazolotetrathiepins of the invention are useful as antimycotic agents. The data is a result of different state of the art protocols, which employ either agar dilution or microtiter broth dilution techniques.

[1] = system: Candida albicans (CAND-1); test: Protocol 4: microtiter broth dilution MIC, Yeast Nitrogen Base broth pH 7.0; format: cell-based, Candida albicans ATCC 11651; details: Candida albicans; Protocol 4, 37°, 5% CO2, 24 hrs; read-out: MIC CAND-1
Text: as §1
(§2) The test organisms used are two yeasts, Candida albicans ATCC 11651 (CAND-1), C. albicans ATCC e10231 (CAND-2) and two dermatophyte strains. Microsporum gypseum ATCC e9083 (MICRO-1) and Trichophyton rubrum ATCC 18756 (TRICH-1). These organisms are standardized to a concentration of 10^7 organisms/mL, aliquoted and frozen at -70°.
(§3) The compounds are dissolved in dimethyl sulfoxide (DMSO) and tested at specific concentrations required for the particular assay.
(§4) Appropriate standards are included with each assay. Their minimal inhibitory concentrations (MIC) values are shown in Table 4 according to the particular protocol used. Stock solutions of standard agents are stored at -70° and diluted the day of the assay.
(§5) Protocols 4 and 5 both utilize a standard microtiter broth dilution method described by Barry (Antimicrobic Susceptibilty Test: Principles and Practices, Lea and Febiger, 1976) but each uses a different medium. Protocol 4 uses Yeast Nitrogen Base broth pH 7.0 [Shadomy, S. Applied Microbiology, 17, 871-877 (1969)] while protocol 5 uses EMEM broth pH 7.4. The test organisms, CAND-1 and CAND-2 are diluted in the appropriate broth to achieve an inoculum of 1×10^4 CFUs/mL.
(§6) The compounds are tested from 100 μg/mL-0.4 μg/mL in 10-two fold serial dilutions and the assay is incubated at 37°, 5% CO2 for 24 hrs. MFC's are then determined as previously described but the plates are incubated under the conditions appropriate for Candida spp.

[2] = system: Candida albicans (CAND-2); test: Protocol 5: microtiter broth dilution MIC/MFC, EMEM broth pH 7.4; format: cell-based, C. albicans ATCC e10231; details: Candida albicans; for MIC: Protocol 5, 37°, 5% CO2, 24 hrs, read-out: MIC CAND-2
Text: as §1, §2, §3, §4, §5, §6

[3] = system: Candida albicans (CAND-1); test: as above; format: cell-based, Candida albicans ATCC 11651; details: Candida albicans; for MIC: Protocol 5, 37°, 5% CO2, 24 hrs, read-out: MIC CAND-1
Text: as §1, §2, §3, §4, §5, §6

[4] = system: Microsporum gypseum (MICRO-1); test: Protocol 1: agar dilution MIC, Sabouraud dextrose agar; format: cell-based, Microsporum gypseum ATCC e9083; details: Nannizzia gypsea
Text: as §1, §2, §3
(§7) Appropriate standards are included with each assay. Their minimal inhibitory concentrations (MIC) values are shown in Table 4 according to the particular protocol used. Stock solutions of standard agents are stored at -70° and diluted the day of the assay. […]
(§8) The compound is tested at four specific concentrations within the range of 100 μg/mL-0.04 μg/mL and is incorporated directly into 20 mL molten agar (50°). […] The plates are incubated at ambient temperature for seven days and the MIC values determined.

[5] = system: Candida albicans (CAND-2); test: Protocol 4: microtiter broth dilution MIC, Yeast Nitrogen Base broth pH 7.0; format: cell-based, C. albicans ATCC e10231; details: Candida albicans; Protocol 4, 37°, 5% CO2, 24 hrs; read-out: MIC CAND-2
Text: as §1, §2, §3, §4, §5, §6

[6] = system: Trichophyton rubrum (TRICH-1); test: Protocol 1: agar dilution MIC, Sabouraud dextrose agar; format: cell-based, Trichophyton rubrum ATCC 18756
Text: as §1, §2, §3, §7, §8

[7] = system: Trichophyton rubrum (TRICH-1); test: Protocol 3: microtiter broth dilution MIC/MFC for dermatophytes, EMEM; format: cell-based, Trichophyton rubrum ATCC 18756
Text: as §1, §2, §3, §4
(§9) Protocol 3 is a microtiter broth dilution assay that has been adapted for dermatophytes using EMEM and is described by Granade and Artis, J. Clin. Micro., 6, 1043-1047 (1982). Both strains of dermatophytes, MICRO-1 and TRICH-1 are diluted in broth to achieve an inoculum of 1×10^4 spores/mL. The compound is serially diluted from 100 μg/mL to 0.4 μg/mL in 10-two fold dilutions. The test is incubated at 30° for 72 hrs and the MIC values are determined. The minimum fungicidal concentration (MFC) assay is performed using the 72 hr microtiter plates. (Szoka, F., Mycology Observer, November-December, 1983). These plates are shaken vigorously and lμl/broth well is transferred with a micropipetter onto the appropirate well on a 24 well agar (EMEM) plate. These plates are then incubated at 30° for 72 hrs and read for MFC's.

[8] = system: Microsporum gypseum (MICRO-1); test: as above; format: cell-based, Microsporum gypseum ATCC e9083; details: Nannizzia gypsea
Text: as §1, §2, §3, §4, §9

[9] = system: Trichophyton rubrum (TRICH-1); test: Protocol 2: agar dilution MIC, Eagle's Minimum Essential Medium Agar (EMEM); format: cell-based, Trichophyton rubrum ATCC 18756
Text: as §1, §2, §3, §4
(§10) Protocols 1 & 2 use a modification of the agar dilution method (Barry, A. L., The Antimicrobic Susceptibility Test: Principles and Practices, Lea and Febiger, 1976) with either Sabouraud dextrose agar (protocol 1) or Eagle's Minimum Essential Medium Agar (EMEM) (protocol 2).
(§11) The compound is tested at four specific concentrations within the range of 100 μg/mL-0.04 μg/mL and is incorporated directly into 20 mL molten agar (50°). The plates are then inoculated with the spore suspensions of MICRO-1 and TRICH-1 at 5×10^6 spores/mL using a multi point inoculator. The plates are incubated at ambient temperature for seven days and the MIC values determined.

[10] = system: Microsporum gypseum (MICRO-1); test: as above; format: cell-based, Microsporum gypseum ATCC e9083; details: Nannizzia gypsea
Text: as §1, §2, §3, §4, §10, §11

[11] = system: Candida albicans (CAND-1); test: In vitro dilution MIC, protocol not given; format: cell-based, Candida albicans ATCC 11651; details: up to 100 μg/mL
Text: as §1, §2, §3
as §5, with “The test organisms, CAND-1 and CAND-2 are diluted in the appropriate broth to achieve an inoculum of 1×10^4 CFUs/mL.” left out
as §6

[12] = system: Candida albicans (CAND-2); test: In vitro dilution MIC, protocol not given; format: cell-based, C. albicans ATCC e10231; details: up to 100 μg/mL
Text: as §1, §2, §3
as §5, with “The test organisms, CAND-1 and CAND-2 are diluted in the appropriate broth to achieve an inoculum of 1×10^4 CFUs/mL.” left out
as §6

Compound: CC1(C)SSc2cn(-c3ccccc3)nc2SS1 [3,3-dimethyl-7-phenyl-1,2,4,5-pyrazolotetrathiepin]
activity (in words) (fungi): inactive

Compound: CC1(C)SSSc2nn(-c3ccccc3)cc2S1 [Example 2, 2,2-Dimethyl-7-phenyl-1,3,4,5-pyrazolotetrathiepin]
MIC CAND-1 (in words) [11]: Inactive at 100 μg/mL | MIC ([9]; 168 h, Protocol 2, ambient temperature, seven days, read-out: MIC TRICH-1): 0.2 µg/mL (≈ 0.64 µM) | MIC CAND-2 (in words) [12]: Inactive at 100 μg/mL | MIC ([10]; 168 h, Protocol 2, ambient temperature, seven days, read-out: MIC MICRO-1): 1 µg/mL (≈ 3.2 µM)

Second part, led by results:

MIC [1]: 12.5 µg/mL (≈ 49.9 µM) | MIC [2]: 1.6 µg/mL (≈ 6.39 µM) | MIC [3]: 3.2 µg/mL (≈ 12.8 µM) | MIC ([4]; 168 h, Protocol 1, ambient temperature, seven days, read-out: MIC MICRO-1): 4 µg/mL (≈ 16 µM) | MIC [5]: 6.3 µg/mL (≈ 25.2 µM) | MIC ([6]; 168 h, Protocol 1, ambient temperature, seven days, read-out: MIC TRICH-1): 4 µg/mL (≈ 16 µM)
Compound: Cn1cc2c(n1)SSSC(C)(C)S2 [Example 5, 2,2-Dimethyl-7-methyl-1,3,4,5-pyrazolotetrathiepin]

MIC ([7]; Protocol 3, mean of five determinations ± standard deviation, read-out: MIC TRICH-1 of standards): 6.3 µg/mL (≈ 17.9 µM) | MIC ([8]; Protocol 3, mean of five determinations ± standard deviation, read-out: MIC MICRO-1 of standards): 5.4 ± 2 µg/mL (≈ 15.3 µM) | MIC ([4]; Protocol 1, mean of five determinations ± standard deviation, read-out: MIC MICRO-1 of standards): 2 ± 0.7 µg/mL (≈ 5.67 µM) | MIC ([9]; Protocol 2, mean of five determinations ± standard deviation, read-out: MIC TRICH-1 of standards): 9.4 ± 4 µg/mL (≈ 26.6 µM) | MIC ([6]; Protocol 1, mean of five determinations ± standard deviation, read-out: MIC TRICH-1 of standards): 1.8 ± 0.7 µg/mL (≈ 5.1 µM) | MIC ([10]; Protocol 2, mean of five determinations ± standard deviation, read-out: MIC MICRO-1 of standards): 4.5 ± 3 µg/mL (≈ 12.8 µM)
Compound: COC1=CC(=O)C[C@@H](C)[C@]12Oc1c(Cl)c(OC)cc(OC)c1C2=O [Griseofulvin]

MIC ([7]; Protocol 3, 30°, 72 hrs, read-out: MIC TRICH-1): 12.5 µg/mL (≈ 49.9 µM) | MIC [2]: 25 µg/mL (≈ 99.8 µM) | MIC ([8]; Protocol 3, 30°, 72 hrs, read-out: MIC MICRO-1): 12.5 µg/mL (≈ 49.9 µM) | MIC [3]: 25 µg/mL (≈ 99.8 µM)
Compound: Cn1cc2c(n1)SSC(C)(C)SS2 [Example 4, 3,3-Dimethyl-7-methyl-1,2,4,5-pyrazolotetrathiepin]
MFC ([7]; Protocol 3, in brackets, subculture on EMEM agar 30°, 72 hrs, read-out: MFC TRICH-1 (minimum fungicidal concentration)): 25 µg/mL (≈ 99.8 µM) | MFC ([2]; Protocol 5, in brackets, read-out: MFC CAND-2 (minimum fungicidal concentration)): 50 µg/mL (≈ 200 µM) | MFC ([8]; Protocol 3, in brackets, subculture on EMEM agar 30°, 72 hrs, read-out: MFC MICRO-1 (minimum fungicidal concentration)): 25 µg/mL (≈ 99.8 µM) | MFC ([3]; Protocol 5, in brackets, read-out: MFC CAND-1 (minimum fungicidal concentration)): 50 µg/mL (≈ 200 µM)
